The values below come from PMC11052071, “Novel JAK Inhibitors to Reduce Graft-Versus-Host Disease after Allogeneic Hematopoietic Cell Transplantation in a Preclinical Mouse Model” (Molecules, 2024).

One data set has as its target JAK2 (Homo sapiens, UniProt O60674). The experiment in a line: Z'-LYTE enzyme activity assay (SelectScreen Kinase Profiling), JAK2.
For the next data set, the target named is T1, JAK3 (Homo sapiens, UniProt P52333).
T1 sequence (P52333 1-1124): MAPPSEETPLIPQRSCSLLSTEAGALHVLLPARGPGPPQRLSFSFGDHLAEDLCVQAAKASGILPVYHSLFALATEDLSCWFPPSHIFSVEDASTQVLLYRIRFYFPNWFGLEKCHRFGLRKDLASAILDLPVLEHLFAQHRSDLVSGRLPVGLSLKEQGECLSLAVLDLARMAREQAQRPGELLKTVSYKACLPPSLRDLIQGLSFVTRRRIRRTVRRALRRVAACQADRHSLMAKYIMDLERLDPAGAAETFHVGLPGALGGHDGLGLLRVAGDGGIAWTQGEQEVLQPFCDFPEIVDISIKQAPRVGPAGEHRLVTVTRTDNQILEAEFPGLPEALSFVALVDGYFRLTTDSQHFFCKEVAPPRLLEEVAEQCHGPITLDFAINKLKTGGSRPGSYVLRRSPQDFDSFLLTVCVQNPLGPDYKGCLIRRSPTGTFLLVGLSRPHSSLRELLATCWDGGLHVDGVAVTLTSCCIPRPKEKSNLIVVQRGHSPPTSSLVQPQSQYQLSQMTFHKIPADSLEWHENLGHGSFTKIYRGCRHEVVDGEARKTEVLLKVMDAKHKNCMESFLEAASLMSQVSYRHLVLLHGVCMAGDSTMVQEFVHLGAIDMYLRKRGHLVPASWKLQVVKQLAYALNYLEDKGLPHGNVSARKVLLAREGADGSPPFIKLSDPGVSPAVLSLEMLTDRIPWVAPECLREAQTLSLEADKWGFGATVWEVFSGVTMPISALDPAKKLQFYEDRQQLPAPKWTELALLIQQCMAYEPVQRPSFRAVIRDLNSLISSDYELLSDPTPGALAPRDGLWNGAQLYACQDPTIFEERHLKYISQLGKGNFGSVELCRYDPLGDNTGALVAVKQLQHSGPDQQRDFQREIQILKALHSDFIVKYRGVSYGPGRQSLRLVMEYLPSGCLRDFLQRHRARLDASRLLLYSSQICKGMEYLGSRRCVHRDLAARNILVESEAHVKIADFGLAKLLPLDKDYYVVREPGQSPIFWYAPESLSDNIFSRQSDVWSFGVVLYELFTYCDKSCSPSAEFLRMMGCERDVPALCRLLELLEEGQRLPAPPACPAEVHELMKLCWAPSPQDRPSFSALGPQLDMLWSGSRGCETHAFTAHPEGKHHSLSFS
The experiment in a line: Z'-LYTE enzyme activity assay (SelectScreen Kinase Profiling), JAK3.

The target of a further data set is TYK2 (Homo sapiens, UniProt P29597). The experiment in a line: Z'-LYTE enzyme activity assay (SelectScreen Kinase Profiling), TYK2.
TYK2, sequence (P29597 whole entry): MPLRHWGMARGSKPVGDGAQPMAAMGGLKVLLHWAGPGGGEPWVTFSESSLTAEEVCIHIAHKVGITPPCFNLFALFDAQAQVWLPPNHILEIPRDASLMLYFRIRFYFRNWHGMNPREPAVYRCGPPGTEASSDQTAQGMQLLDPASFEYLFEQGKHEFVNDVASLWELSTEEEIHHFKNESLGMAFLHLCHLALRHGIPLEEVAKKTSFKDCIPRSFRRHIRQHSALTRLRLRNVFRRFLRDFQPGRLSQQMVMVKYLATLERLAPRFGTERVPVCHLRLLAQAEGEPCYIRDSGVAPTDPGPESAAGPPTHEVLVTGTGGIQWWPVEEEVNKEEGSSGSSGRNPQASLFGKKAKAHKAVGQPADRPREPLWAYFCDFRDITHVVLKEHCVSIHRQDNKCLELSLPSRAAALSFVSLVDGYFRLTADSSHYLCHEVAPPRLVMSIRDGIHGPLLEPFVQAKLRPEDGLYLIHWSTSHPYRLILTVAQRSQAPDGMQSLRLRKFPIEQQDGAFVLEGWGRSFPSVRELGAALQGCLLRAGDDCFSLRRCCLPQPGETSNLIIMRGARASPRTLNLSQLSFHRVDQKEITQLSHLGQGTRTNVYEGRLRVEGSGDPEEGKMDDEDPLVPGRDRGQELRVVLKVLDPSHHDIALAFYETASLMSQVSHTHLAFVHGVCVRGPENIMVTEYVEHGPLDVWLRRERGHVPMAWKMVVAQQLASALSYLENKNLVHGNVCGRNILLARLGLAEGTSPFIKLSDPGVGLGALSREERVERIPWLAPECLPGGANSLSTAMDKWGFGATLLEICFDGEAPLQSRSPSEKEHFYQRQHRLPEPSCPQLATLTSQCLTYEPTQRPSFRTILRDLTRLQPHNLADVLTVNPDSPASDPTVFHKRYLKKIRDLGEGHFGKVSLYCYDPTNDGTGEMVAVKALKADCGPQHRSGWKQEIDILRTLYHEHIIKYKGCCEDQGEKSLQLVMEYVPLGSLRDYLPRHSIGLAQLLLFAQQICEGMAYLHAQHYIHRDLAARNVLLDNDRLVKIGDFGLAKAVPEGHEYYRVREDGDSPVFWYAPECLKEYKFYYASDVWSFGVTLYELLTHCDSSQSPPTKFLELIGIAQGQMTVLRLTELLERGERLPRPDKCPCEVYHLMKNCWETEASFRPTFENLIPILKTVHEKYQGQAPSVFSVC
For data set [1] the following is noted: human; cited from earlier work.
The conditions of data set [2]: cited from earlier work; for terminal plasma half-life: human.
For another data set, the system named is PKN1. To be noted: murine and human whole-kinome analyses; cited from earlier work.
Another data set deals with GvHD. The experiment in a line: Preclinical mouse model of allo-HCT (GvHD). In kind it is in vivo, Balb/c recipient mice. The text has this: To determine the potential of WU4 and WU8 in preventing GvHD, we performed allo-HCT in which 5 × 10^6 T cell-depleted bone marrow (TCD-BM; CD45.1+) and 5 × 10^5 splenic pan T cells (CD45.2+) obtained from B6 mice were transplanted into lethally irradiated (900 cGy on day −1) Balb/c allogeneic recipient mice on day 0. […]. […] Among monocyte subsets, we only considered classical (LyG6^−CD11b^+Ly6C^high) and intermediate monocytes (LyG6^−CD11b^+Ly6C^middle) as APCs, excluding non-classical monocytes (LyG6^−CD11b^+Ly6C^low) due to their anti-inflammatory function, which downregulates antigen presentation during inflammation. […]
Figure 5 In vivo administration of WU4 and WU8 reduces GvHD by increasing % of Tregs while suppressing % of APCs and costimulatory proteins on APCs after allo-HCT. Allo-HCT was performed as follows: 5 × 10^6 TCD-BM (CD45.1+) and 5 × 10^5 splenic T cells (CD45.2+) obtained from B6 mice were transplanted on day 0 into lethally irradiated (900 cGy on day −1) Balb/c allogeneic recipient mice. TCD-BM-only group served as a no-GvHD control. […] (A,B) The mice were monitored for survival and GvHD signs. (C–F) Whole splenocytes were analyzed for % of Tregs, recipient/BM-derived APCs, and CD80-expressing APCs on day 6 after allo-HCT. LyG6^−CD11b^+Ly6C^high and LyG6^−CD11b^+Ly6C^middle served as classical and intermediate monocyte subsets. NT: neutrophils. * p < 0.05, ** p < 0.01, and *** p < 0.001. All error bars are represented as mean ± standard deviation.
Allo-HCT was performed as previously described. Briefly, BALB/c mice were used as recipients and received 9 Gy total body irradiation on day −1, then were transplanted with 5 × 10^6 T cell-depleted bone marrow (TCD-BM) cells from B6 (CD45.1+) mice along with 0.5 × 10^6 splenic T cells from B6 (CD45.2+) mice on day 0. Mouse TCD-BM and splenic T cells were prepared using an EasySep mouse CD90.2 positive selection kit II and an EasySep mouse T cell isolation kit ([…] Technologies, Cambridge, MA, USA), respectively.
GvHD clinical scores were assessed twice per week by a scoring system incorporating five clinical criteria: weight loss (diarrhea scored 1 regardless of weight change), posture (hunching), mobility, fur texture, and skin integrity, as previously described. Individual mice were scored from 0 to 2 for each criterion and were sacrificed with GvHD scores of 6 or above, following our approved animal protocol.
T cells from in vitro primary murine T cell culture, fresh peripheral blood, or whole splenocytes were analyzed according to cell surface and intracellular markers. Surface markers were directly stained with flow antibodies for 20 min at 4 °C. For intracellular staining (FOXP3 and T-bet), cells were fixed and permeabilized after surface staining using appropriate buffers (One-step intracellular nuclear protein staining protocol, eBioscience, San Diego, CA, USA) and stained with flow antibodies. The antibodies used for flow cytometric analyses for mouse cells were as follows: FOXP3, T-BET, and CD183 (eBioscience, San Diego, CA, USA); CD3, H2-Kb, H2-Kd, CD4, B220, CD11b, CD11c, Ly6C, and DEC205 (BioLegend, San Diego, CA); and CD8, CD45.2, CD80, and Ly6G (BD Pharmingen, San Jose, CA, USA). All cells were run on a ZE5 Cell Analyzer (BD Biosciences, Mountain View, CA, USA) or Attune® NxT (Thermofisher Scientific, Waltham, MA, USA) and analyzed with the FlowJo software, version 10.9.0 (FlowJo LLC., Ashland, OR, USA).

The nature of data set [3]: Mouse PK after subcutaneous injection. To be noted: 2 mg/kg s.c., CD-1 mice, time points up to 6 h; WU derivatives compared to BARI. Format: in vivo.
Data set [4] is described as follows: Human liver microsome (HLM) assay. To be noted: incubations with human liver microsomes. In kind it is in vitro ADME. As for the experimental part:
Subsequently, we assessed the in vitro metabolic stability and clearance values of WU derivatives in an HLM assay.
(A,B) Mouse PK following subcutaneous administration of WU derivatives (2 mg/kg) to CD-1 mice. […] All error bars are represented as mean ± standard deviation.
Mouse PK and in vitro human liver microsome (HLM) assay studies were conducted by Charles River Laboratories, Inc. (Wilmington, MA, USA). Briefly, male CD-1 mice were used in mouse PK studies. […] At 24 h, no drug levels were detected in plasma for any of the compounds tested. In addition, WU derivatives were evaluated in an in vitro HLM assay to determine the intrinsic human liver microsomal clearance values of compounds in incubations with human liver microsomes.
(Liver microsomes are vesicles of endoplasmic reticulum, rich in cytochrome P450 enzymes.)

Another data set has as its target JAK1 (Homo sapiens, UniProt P23458). The experiment in a line: Z'-LYTE enzyme activity assay (SelectScreen Kinase Profiling), JAK1.
[5] abbreviates: 4 mg/kg s.c. once daily for 3 weeks from day 3, vs vehicle control.
Where [6] appears, read: 20 mg/kg s.c. once daily for 3 weeks from day 3, vs vehicle control.
The mark [7] stands for this setting: dose not given, vs vehicle control.

Like-named read-outs stand apart in the source and are kept apart here.

JAK2, sequence (O60674 whole entry): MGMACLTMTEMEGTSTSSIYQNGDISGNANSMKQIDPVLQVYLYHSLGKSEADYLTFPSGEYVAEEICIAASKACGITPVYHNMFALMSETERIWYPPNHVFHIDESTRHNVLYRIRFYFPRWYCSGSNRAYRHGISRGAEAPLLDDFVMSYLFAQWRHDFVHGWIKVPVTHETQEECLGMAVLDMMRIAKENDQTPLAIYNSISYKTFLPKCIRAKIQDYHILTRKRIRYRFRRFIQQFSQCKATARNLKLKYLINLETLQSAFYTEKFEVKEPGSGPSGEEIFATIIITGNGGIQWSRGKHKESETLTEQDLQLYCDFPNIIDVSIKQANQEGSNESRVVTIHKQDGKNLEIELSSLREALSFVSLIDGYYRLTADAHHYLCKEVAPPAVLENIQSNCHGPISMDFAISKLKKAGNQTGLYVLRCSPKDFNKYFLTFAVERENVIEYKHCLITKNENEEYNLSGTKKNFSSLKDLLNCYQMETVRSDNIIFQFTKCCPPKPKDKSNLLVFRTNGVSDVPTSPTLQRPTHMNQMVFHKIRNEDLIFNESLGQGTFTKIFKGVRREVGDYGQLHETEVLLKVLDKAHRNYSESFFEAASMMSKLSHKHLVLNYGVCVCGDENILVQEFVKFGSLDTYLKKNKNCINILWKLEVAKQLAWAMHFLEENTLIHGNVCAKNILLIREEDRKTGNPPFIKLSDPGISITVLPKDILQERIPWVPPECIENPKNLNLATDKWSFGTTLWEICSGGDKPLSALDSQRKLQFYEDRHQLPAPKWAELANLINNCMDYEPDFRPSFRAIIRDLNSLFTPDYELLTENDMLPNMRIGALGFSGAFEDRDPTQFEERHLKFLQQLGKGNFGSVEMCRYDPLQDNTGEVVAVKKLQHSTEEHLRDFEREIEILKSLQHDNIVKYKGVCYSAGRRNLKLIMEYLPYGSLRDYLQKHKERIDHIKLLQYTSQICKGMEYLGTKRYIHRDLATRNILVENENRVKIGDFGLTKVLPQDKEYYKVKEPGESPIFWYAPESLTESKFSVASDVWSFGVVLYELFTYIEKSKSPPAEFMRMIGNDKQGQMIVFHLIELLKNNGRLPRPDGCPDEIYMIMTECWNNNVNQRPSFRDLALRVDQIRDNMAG
JAK1, sequence (P23458 whole entry): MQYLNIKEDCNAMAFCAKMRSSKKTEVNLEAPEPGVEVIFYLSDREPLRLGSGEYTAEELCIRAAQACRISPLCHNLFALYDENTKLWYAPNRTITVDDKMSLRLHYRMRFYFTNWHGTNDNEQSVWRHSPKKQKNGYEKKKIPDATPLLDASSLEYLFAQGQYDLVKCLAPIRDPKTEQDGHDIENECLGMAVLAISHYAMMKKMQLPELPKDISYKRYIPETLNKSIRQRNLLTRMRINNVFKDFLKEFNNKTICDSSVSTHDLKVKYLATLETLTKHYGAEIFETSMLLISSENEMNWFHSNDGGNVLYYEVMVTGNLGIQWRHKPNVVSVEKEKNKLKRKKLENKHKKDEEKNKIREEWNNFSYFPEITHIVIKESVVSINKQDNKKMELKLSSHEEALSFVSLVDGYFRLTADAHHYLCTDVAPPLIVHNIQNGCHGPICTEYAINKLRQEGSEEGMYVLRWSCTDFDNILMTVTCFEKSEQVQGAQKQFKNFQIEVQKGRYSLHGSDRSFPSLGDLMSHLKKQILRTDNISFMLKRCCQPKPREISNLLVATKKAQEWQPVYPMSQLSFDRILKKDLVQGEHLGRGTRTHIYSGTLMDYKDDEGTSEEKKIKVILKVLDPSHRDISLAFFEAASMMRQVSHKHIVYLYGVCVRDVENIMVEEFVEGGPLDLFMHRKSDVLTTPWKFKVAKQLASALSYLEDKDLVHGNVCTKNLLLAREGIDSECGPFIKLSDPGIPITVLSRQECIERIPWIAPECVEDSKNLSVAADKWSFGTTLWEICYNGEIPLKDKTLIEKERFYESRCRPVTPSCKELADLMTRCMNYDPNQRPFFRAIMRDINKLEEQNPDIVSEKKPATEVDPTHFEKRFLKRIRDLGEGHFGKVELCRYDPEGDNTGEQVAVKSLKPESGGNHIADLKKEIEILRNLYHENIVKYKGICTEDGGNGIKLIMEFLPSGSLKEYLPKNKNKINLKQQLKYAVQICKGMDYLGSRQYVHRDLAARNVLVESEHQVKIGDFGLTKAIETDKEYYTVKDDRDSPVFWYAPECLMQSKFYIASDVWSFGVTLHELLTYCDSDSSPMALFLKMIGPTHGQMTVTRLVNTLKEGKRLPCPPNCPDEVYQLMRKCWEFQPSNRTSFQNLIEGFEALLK

On to `CCS(=O)(=O)N1CCC12CC(CC#N)(n1cc(-c3ncnc4[nH]ccc34)cn1)C2` (stereo not drawn) [WU2], for which the IC50 against JAK2 (IC50 JAK2, ATP at app. Km) is 54.2 nM; against JAK3 (IC50 JAK3, ATP at app. Km), 418 nM; at TYK2 (IC50 TYK2, ATP at app. Km), 574 nM.
For `N#CC[C@H](C1CCCC1)n1cc(-c2ncnc3[nH]ccc23)cn1` [RUX, Ruxolitinib], the plasma protein binding in data set [1] is 97%. Also, the “metabolism (extent)” value in data set [2] (RUX mostly in the liver via CYP(3A4)) was greater than 99%. The terminal plasma half-life in data set [2] (in vivo) was ~ 2 h. In addition, in the data set on PKN1, the “inhibition of off target PKN1” value is given as “not by RUX”.
In the case of `CCS(=O)(=O)N1CC(CC#N)(n2cc(-c3ncnc4[nH]ccc34)cn2)C1` [BARI, baricitinib, reference compound], the “clinical GvHD scores” value with GvHD (setting [5]) and in the data set on GvHD (setting [6]) was “less clinical GvHD scores” each time. The overall survival entry in the data set with GvHD (setting [5]) and in the data set on GvHD (setting [6]) was “significantly improved survival rate” each time. The plasma protein binding in data set [1] is listed as 50%. In addition, in [2] (in vivo), the terminal plasma half-life is ~ 8.5 h. In [2] (in vivo), the “metabolism (extent)” value is on record as “very little metabolism”. Also, the IC50 on TYK2 (IC50 TYK2, ATP at 1 mM) came to 42.3 nM; against TYK2 (IC50 TYK2, ATP at app. Km) it was 2.21 nM.
For `N#CCC1(n2cc(-c3ncnc4[nH]ccc34)cn2)CS(=O)(=O)C1` [WU9], the IC50 came out at 9.67 nM at JAK2 (IC50 JAK2, ATP at 1 mM); 0.406 nM on JAK2 (IC50 JAK2, ATP at app. Km); 501 nM on JAK3 (IC50 JAK3, ATP at 1 mM); 10.4 nM against JAK3 (IC50 JAK3, ATP at app. Km); 34.7 nM at TYK2 (IC50 TYK2, ATP at 1 mM); 2.24 nM at TYK2 (IC50 TYK2, ATP at app. Km).
On to `CCS(=O)(=O)N1CCC2(CC1)CCC(CC#N)(n1cc(-c3ncnc4[nH]ccc34)cn1)CC2` [WU7], for which the “plasma drug concentration (mouse PK)” value in data set [3] is on record as “significant reduction in plasma concentration at 2 h after injection”. The “in vitro metabolic stability in HLM” value in data set [4] is “diminished HLM metabolic stability”. In addition, the IC50 on JAK2 (IC50 JAK2, ATP at 1 mM) is 13.8 nM; at JAK2 (IC50 JAK2, ATP at app. Km) it was 0.867 nM; on JAK3 (IC50 JAK3, ATP at 1 mM), 423 nM; on JAK3 (IC50 JAK3, ATP at app. Km), 12.3 nM; on TYK2 (IC50 TYK2, ATP at 1 mM), 275 nM; on TYK2 (IC50 TYK2, ATP at app. Km), 12.1 nM.
Regarding `CS(=O)(=O)C1CC(CC#N)(n2cc(-c3ncnc4[nH]ccc34)cn2)C1` (stereo not drawn) [WU10], in the data set on GvHD (dose not given, day 6 after allo-HCT, vs vehicle control), the “% of Tregs in the spleens” value was “significantly increased the % of Tregs”. Besides, in the data set with GvHD (setting [7]), the “clinical GvHD scores” value is “reduced GvHD”. Moreover, the overall survival entry with GvHD (setting [7]) is “trend towards increased overall survival”. Further, the “blood cell recovery (lymphocytes and white blood cells)” value with GvHD (dose not given, whole blood, day 27 after allo-HCT) is “trend towards improvement in blood cell recovery”. Also, the IC50 is 6.11 nM against JAK2 (IC50 JAK2, ATP at 1 mM); 0.37 nM at JAK2 (IC50 JAK2, ATP at app. Km); 496 nM against JAK3 (IC50 JAK3, ATP at 1 mM); 13 nM on JAK3 (IC50 JAK3, ATP at app. Km); 108 nM at TYK2 (IC50 TYK2, ATP at 1 mM); 4.56 nM at TYK2 (IC50 TYK2, ATP at app. Km).
Turning to `CCS(=O)(=O)N1CC2(C1)CC(CC#N)(n1cc(-c3ncnc4[nH]ccc34)cn1)C2` [WU1], the IC50 came to 8.22 nM against JAK2 (IC50 JAK2, ATP at app. Km); 60.8 nM at JAK3 (IC50 JAK3, ATP at app. Km); 29.4 nM on TYK2 (IC50 TYK2, ATP at app. Km).
With `CCS(=O)(=O)N1CC2(CCC2(CC#N)n2cc(-c3ncnc4[nH]ccc34)cn2)C1` (stereo not drawn) [WU3], the IC50 against JAK2 (IC50 JAK2, ATP at app. Km) turned out to be 35.1 nM; at JAK3 (IC50 JAK3, ATP at app. Km), 36.2 nM; against TYK2 (IC50 TYK2, ATP at app. Km), 578 nM.
On to `CC(C)(C)NS(=O)(=O)NC1CC2(C1)CC(CC#N)(n1cc(-c3ncnc4[nH]ccc34)cn1)C2` (stereo not drawn) [WU5], for which the “% of donor BM-derived B and T cells in the peripheral blood” value in the data set on GvHD (dose not given, day 27 after allo-HCT, vs vehicle control) was “increased the % of donor BM-derived B and T cells”. The “clinical GvHD scores” value in the data set with GvHD (setting [7]) was “less clinical GvHD scores”. Moreover, in the data set with GvHD (setting [7]), the overall survival result is “significantly improved overall survival”. The IC50 on JAK1 (IC50 JAK1, ATP at 1 mM) worked out at 8.2 nM; against JAK1 (IC50 JAK1, ATP at app. Km), 1.47 nM; against JAK2 (IC50 JAK2, ATP at 1 mM), 9.88 nM; on JAK2 (IC50 JAK2, ATP at app. Km), 0.45 nM; on JAK3 (IC50 JAK3, ATP at 1 mM), 623 nM; against JAK3 (IC50 JAK3, ATP at app. Km), 11.2 nM. In addition, the IC50 against TYK2 (IC50 TYK2, ATP at 1 mM) stood at 58.9 nM; on TYK2 (IC50 TYK2, ATP at app. Km), 3.11 nM.

As a reminder, the IC50 is the concentration that gives 50% inhibition.
